Our source for the IC50 values is US11236069B2, “KIF18A inhibitors” (AMGEN INC., priority 2018, dated 2022).

The target in this assay is Recombinant human KIF18A (1-467 His-tagged) protein (Homo sapiens (Human), UniProt Q8NI77). Kind of assay: KIF18A Enzyme Assay: microtubule-stimulated ATPase activity (ADP-Glo). The note with it: read-out: KIF18A ATPase IC50; 30 nM KIF18A, 30 μg/mL pig microtubules, ATP at Km 75 μM, ADP-Glo luminescence.
Sequence of Recombinant human KIF18A (1-467 His-tagged) protein (Q8NI77 1-467): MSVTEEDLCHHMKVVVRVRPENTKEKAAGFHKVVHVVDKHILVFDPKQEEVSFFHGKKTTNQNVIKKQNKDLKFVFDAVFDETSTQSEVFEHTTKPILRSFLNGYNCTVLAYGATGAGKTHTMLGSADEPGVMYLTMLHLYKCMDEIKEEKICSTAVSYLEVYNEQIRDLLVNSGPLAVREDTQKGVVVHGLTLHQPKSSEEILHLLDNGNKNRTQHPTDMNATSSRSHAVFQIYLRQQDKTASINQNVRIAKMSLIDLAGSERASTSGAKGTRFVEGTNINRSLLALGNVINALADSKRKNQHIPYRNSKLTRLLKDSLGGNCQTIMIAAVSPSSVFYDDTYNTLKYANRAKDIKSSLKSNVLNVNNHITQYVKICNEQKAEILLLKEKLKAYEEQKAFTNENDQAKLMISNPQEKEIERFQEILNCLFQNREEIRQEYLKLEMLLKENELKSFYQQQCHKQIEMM
Sequence of Recombinant human KIF18A (1-467 His-tagged) protein (P02550 whole entry partner): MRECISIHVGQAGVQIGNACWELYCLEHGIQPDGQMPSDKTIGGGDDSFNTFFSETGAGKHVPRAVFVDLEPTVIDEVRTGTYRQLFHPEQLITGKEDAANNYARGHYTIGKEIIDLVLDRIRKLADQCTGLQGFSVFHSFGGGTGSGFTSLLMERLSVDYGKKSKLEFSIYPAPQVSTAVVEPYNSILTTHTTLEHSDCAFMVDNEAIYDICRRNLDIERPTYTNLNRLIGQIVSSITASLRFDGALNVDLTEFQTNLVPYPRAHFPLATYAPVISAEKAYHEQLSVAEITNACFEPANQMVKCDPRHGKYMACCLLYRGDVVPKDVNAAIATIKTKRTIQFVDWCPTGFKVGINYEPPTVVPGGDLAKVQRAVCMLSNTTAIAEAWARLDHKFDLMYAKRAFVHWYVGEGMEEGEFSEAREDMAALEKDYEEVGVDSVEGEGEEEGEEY
Sequence of Recombinant human KIF18A (1-467 His-tagged) protein (P02554 whole entry partner): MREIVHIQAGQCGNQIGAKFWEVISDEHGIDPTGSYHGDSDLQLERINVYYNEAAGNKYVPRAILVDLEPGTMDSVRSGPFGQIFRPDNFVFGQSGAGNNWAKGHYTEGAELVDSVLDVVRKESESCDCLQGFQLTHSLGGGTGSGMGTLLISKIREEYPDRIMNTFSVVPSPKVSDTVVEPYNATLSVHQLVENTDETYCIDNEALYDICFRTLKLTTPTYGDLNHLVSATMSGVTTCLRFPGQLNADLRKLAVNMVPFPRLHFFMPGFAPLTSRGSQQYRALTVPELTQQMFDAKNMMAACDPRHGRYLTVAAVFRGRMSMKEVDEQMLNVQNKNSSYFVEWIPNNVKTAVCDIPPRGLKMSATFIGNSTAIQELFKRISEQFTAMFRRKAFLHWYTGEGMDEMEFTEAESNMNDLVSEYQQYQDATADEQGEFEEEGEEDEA
Source text: KIF18A Enzyme Assay: Microtubule-stimulated ATPase activity assay is used to measure KIF18A enzyme activity after treatment with compound. Compounds were 2-fold serially diluted in DMSO (Sigma Inc) over 22-point concentration range. […] The assay measures ADP formed from the ATPase reaction.
In the case of `Cc1cc(NC(=O)c2ccc(NS(=O)(=O)CCO)cc2N2CCC3(CC2)CC3)nc(N2CCCC2)n1` [Example 11-26, 4-((2-Hydroxyethyl)sulfonamido)-N-(6-methyl-2-(pyrrolidin-1-yl)pyrimidin-4-yl)-2-(6-azaspiro[2.5]octan-6-yl)benzamide], the IC50 (usually the concentration that inhibits the measured activity by half) was 71.6 nM. The same measure for `Cc1cc(NC(=O)c2ccc(NS(=O)(=O)CCO)cc2N2CCC3(CC2)CC3)nc(N2CC(C)(O)C2)n1` [Example 11-15, N-(2-(3-Hydroxy-3-methylazetidin-1-yl)-6-methylpyrimidin-4-yl)-4-((2-hydroxyethyl)sulfonamido)-2-(6-azaspiro[2.5]octan-6-yl)benzamide]: 935 nM; for `Cc1cc(NC(=O)c2ccc(S(=O)(=O)NCCO)cc2N2CCC3(CC2)CC3)nc(N2CCC(F)(F)CC2)n1` [Example 17-3, N-(2-(4,4-Difluoropiperidin-1-yl)-6-methylpyrimidin-4-yl)-4-(N-(2-hydroxyethyl)sulfamoyl)-2-(6-azaspiro[2.5]octan-6-yl)benzamide]: 63 nM.

Consider `Cc1cc(NC(=O)c2ccc(NS(=O)(=O)CCO)cc2N2CCC3(CC2)CC3)nc(N2CCC[C@@H](C#N)C2)n1` [Example 11-34, (R)-N-(2-(3-Cyanopiperidin-1-yl)-6-methylpyrimidin-4-yl)-4-((2-hydroxyethyl)sulfonamido)-2-(6-azaspiro[2.5]octan-6-yl)benzamide], for which the IC50 was 92 nM. Turning to `Cc1cc(NC(=O)c2ccc(NS(=O)(=O)CCO)cc2N2CCC3(CC2)CC3)nc(N2CCC(F)(F)C2)n1` [Example 11-30, N-(2-(3,3-Difluoropyrrolidin-1-yl)-6-methylpyrim-4-yl)-4-((2-hydroxyethyl)sulfonamido)-2-(6-azaspiro[2.5]octan-6-yl)benzamide], the IC50 was found to be 33 nM.

`Cc1cc(NC(=O)c2ccc(NS(=O)(=O)CCO)cc2N2CCC3(CC2)CC3)nc(N2CCC3(CC2)CC3)n1` [Example 11-31, 4-((2-Hydroxyethyl)sulfonamido)-N-(6-methyl-2-(6-azaspiro[2.5]octan-6-yl)pyrimidin-4-yl)-2-(6-azaspiro[2.5]octan-6-yl)benzamide]: the IC50 was found to be 146 nM. As to `Cc1cc(NC(=O)c2ccc(NS(=O)(=O)CCO)cc2N2CCC3(CC2)CC3)nc(N2CC(O)C2)n1` [Example 11-20, N-(2-(3-Hydroxyazetidin-1-yl)-6-methylpyrimidin-4-yl)-4-((2-hydroxyethyl)sulfonamido)-2-(6-azaspiro[2.5]octan-6-yl)benzamide], the IC50 was determined as 48.3 nM. For `Cc1cc(NC(=O)c2ccc(NS(=O)(=O)[C@H](C)CO)cc2N2CCC3(CC2)CC3)nc(N2CCO[C@H](C)C2)n1` [Example 6-23-2, 4-(((R)-2-Hydroxy-1-methylethyl)sulfonamido)-N-(6-methyl-2-((R)-2-methylmorpholino)pyrimidin-4-yl)-2-(6-azaspiro[2.5]octan-6-yl)benzamide], the IC50 stood at 37.3 nM. Turning to `Cc1cc(NC(=O)c2ccc(NS(=O)(=O)C3COC3)cc2N2CCC3(CC2)CC3)nc(N2CC(F)(F)C2)n1` [Example 11-23, N-(2-(3,3-Difluoroazetidin-1-yl)-6-methylpyrimidin-4-yl)-4-(oxetane-3-sulfonamido)-2-(6-azaspiro[2.5]octan-6-yl)benzamide], the IC50 came out at 48.9 nM.

Consider `Cc1cc(NC(=O)c2ccc(NS(=O)(=O)C3CCOC3)cc2N2CCC3(CC2)CC3)nc(N2CCC(F)(F)CC2)n1` (stereo in doubt) [Example 11-73, (R)-N-(2-(4,4-Difluoropiperidin-1-yl)-6-methylpyrimidin-4-yl)-2-(6-azaspiro[2.5]octan-6-yl)-4-((tetrahydrofuran)-3 sulfonamido)benzamide], for which the IC50 turned out to be 79 nM. In the case of `Cc1cc(NC(=O)c2ccc(NS(=O)(=O)CF)cc2N2CCC3(CC2)CC3)nc(N2CCC(F)CC2)n1` [Example 6-1, 4-((Fluoromethyl)sulfonamido)-N-(2-(4-fluoropiperidin-1-yl)-6-methylpyrimidin-4-yl)-2-(6-azaspiro[2.5]octan-6-yl)benzamide] it was 62 nM; in that of `O=C(Nc1ccnc(OCCC(F)(F)F)n1)c1ccc(S(=O)(=O)NCCO)cc1N1CCC2(CC1)CC2` [Example 17-1, 4-(N-(2-Hydroxyethyl)sulfamoyl)-2-(6-azaspiro[2.5]octan-6-yl)-N-(2-(3,3,3-trifluoropropoxy)pyrimidin-4-yl)benzamide], 27 nM. For `Cc1cc(NC(=O)c2ccc(NS(=O)(=O)CCO)cc2N2CCC3(CC2)CC3)nc(N2CCC[C@H](C#N)C2)n1` [Example 11-35, (S)-N-(2-(3-Cyanopiperidin-1-yl)-6-methylpyrimidin-4-yl)-4-((2-hydroxyethyl)sulfonamido)-2-(6-azaspiro[2.5]octan-6-yl)benzamide], the IC50 was determined as 43 nM. With `Cc1cc(NC(=O)c2ccc(NS(=O)(=O)CCO)cc2N2CCC3(CC2)CC3)nc(N2CCC2)n1` [Example 11-19, N-(2-(Azetidin-1-yl)-6-methylpyrimidin-4-yl)-4-((2-hydroxyethyl)sulfonamido)-2-(6-azaspiro[2.5]octan-6-yl)benzamide], the IC50 was 205 nM. Turning to `O=C(Nc1ccnc(N2CC(F)(F)C2)n1)c1ccc(NS(=O)(=O)CCO)cc1N1CCC2(CC1)CC2` [Example 11-7, N-(2-(3,3-Difluoroazetidin-1-yl)pyrimidin-4-yl)-4-((2-hydroxyethyl)sulfonamido)-2-(6-azaspiro[2.5]octan-6-yl)benzamide], the IC50 came out at 23 nM. On to `CCS(=O)(=O)c1ccc(C(=O)Nc2cc(C)nc(N3CCC(F)(F)CC3)n2)c(N2CCC3(CC2)CC3)c1` [Example 14-2, N-(2-(4,4-Difluoropiperidin-1-yl)-6-methylpyrimidin-4-yl)-4-(ethylsulfonyl)-2-(6-azaspiro[2.5]octan-6-yl)benzamide], for which the IC50 is 108 nM.

Take `Cc1cc(NC(=O)c2ccc(NS(=O)(=O)CCO)cc2N2CCC3(CC2)CC3)nc(N2CC(O)(C3CC3)C2)n1` [Example 11-16, N-(2-(3-Cyclopropyl-3-hydroxyazetidin-1-yl)-6-methylpyrimidin-4-yl)-4-((2-hydroxyethyl)sulfonamido)-2-(6-azaspiro[2.5]octan-6-yl)benzamide]: the IC50 turned out to be 1010 nM.

Turning to `O=C(Nc1cc(C2CC2)nc(N2CCC(F)(F)CC2)n1)c1ccc(NS(=O)(=O)CCO)cc1N1CCC2(CC1)CC2` [Example 6-39, N-(6-Cyclopropyl-2-(4,4-difluoropiperidin-1-yl)pyrimidin-4-yl)-4-((2-hydroxyethyl)sulfonamido)-2-(6-azaspiro[2.5]octan-6-yl)benzamide], the IC50 turned out to be 225 nM. The same measure for `Cc1cc(NC(=O)c2ccc(NS(=O)(=O)[C@H](CO)CF)cc2N2CCC3(CC2)CC3)nc(N2CCC(F)(F)CC2)n1` [Example 16-1, (R)-N-(2-(4,4-Difluoropiperidin-1-yl)-6-methylpyrimidin-4-yl)-4-((2-fluoro-1-(hydroxymethyl)ethyl)sulfonamido)-2-(6-azaspiro[2.5]octan-6-yl)benzamide]: 89 nM; for `Cc1cc(NC(=O)c2ccc(S(C)(=N)=O)cc2N2CCC3(CC2)CC3)nc(N2CCC(F)(F)CC2)n1` (stereo not shown) [Example 19-2, N-(2-(4,4-Difluoropiperidin-1-yl)-6-methylpyrimidin-4-yl)-4-(methylsulfonimidoyl)-2-(6-azaspiro[2.5]octan-6-yl)benzamide]: 438 nM. `Cc1cc(NC(=O)c2ccc(NS(=O)(=O)[C@@H](CO)CF)cc2N2CCC3(CC2)CC3)nc(N2CCC(F)(F)CC2)n1` [Example 16-2, (S)-N-(2-(4,4-Difluoropiperidin-1-yl)-6-methylpyrimidin-4-yl)-4-((2-fluoro-1-(hydroxymethyl)ethyl)sulfonamido)-2-(6-azaspiro[2.5]octan-6-yl)benzamide]: the IC50 came out at 96 nM. For the compound `Cc1cc(NC(=O)c2ccc(NS(=O)(=O)CCO)cc2N2CCC(C)(C)CC2)nc(N2CCC(F)(F)CC2)n1` [Example 11-41, N-(2-(4,4-Difluoropiperidin-1-yl)-6-methylpyrimidin-4-yl)-2-(4,4-dimethylpiperidin-1-yl)-4-((2-hydroxyethyl)sulfonamido)benzamide], the concentration for half-maximal inhibition (IC50) is 127 nM. On to `Cc1cc(NC(=O)c2ccc(S(=O)(=O)NC3(C)COC3)cc2N2CCC3(CC2)CC3)nc(N2CCO[C@H](C)C2)n1` [Example 2-3, (R)-N-(6-Methyl-2-(2-methylmorpholino)pyrimidin-4-yl)-4-(N-(3-methyloxetan-3-yl)sulfamoyl)-2-(6-azaspiro[2.5]octan-6-yl)benzamide], for which the IC50 is 115 nM. In the case of `Cc1cc(NC(=O)c2ccc(NS(=O)(=O)CCO)cc2N2CCC3(CC2)CC3)nc(N2CCC(C#N)CC2)n1` [Example 11-33, N-(2-(4-Cyanopiperidin-1-yl)-6-methylpyrimidin-4-yl)-4-((2-hydroxyethyl)sulfonamido)-2-(6-azaspiro[2.5]octan-6-yl)benzamide], the IC50 came out at 88 nM. Take `Cc1cc(NC(=O)c2ccc(S(C)(=O)=O)cc2N2CCC3(CC2)CC3)nc(NC[C@@H](C)O)n1` [Example 1-4, (R)-N-(2-((2-Hydroxypropyl)amino)-6-methylpyrimidin-4-yl)-4-(methylsulfonyl)-2-(6-azaspiro[2.5]octan-6-yl)benzamide]: the IC50 stood at 580 nM.

Consider `Cc1cc(NC(=O)c2ccc(NS(=O)(=O)C(C)C)cc2N2CCC3(CC2)CC3)nc(N2CC(F)(F)C2)n1` [Example 11-75, N-(2-(3,3-Difluoroazetidin-1-yl)-6-methylpyrimidin-4-yl)-4-((1-methylethyl)sulfonamido)-2-(6-azaspiro[2.5]octan-6-yl)benzamide], for which the IC50 stood at 56 nM.

For `Cc1cc(NC(=O)c2ccc(NS(=O)(=O)CCO)cc2N2CCC3(CC2)CC3)nc(N2CCOC(C)(C)C2)n1` [Example 11-46, N-(2-(2,2-Dimethylmorpholino)-6-methylpyrimidin-4-yl)-4-((2-hydroxyethyl)sulfonamido)-2-(6-azaspiro[2.5]octan-6-yl)benzamide], the IC50 was found to be 150 nM. Take `Cc1cc(NC(=O)c2ccc(NS(=O)(=O)CF)cc2N2CCC3(CC2)CC3)nc(N2CCC(F)(F)CC2)n1` [Example 6-2, N-(2-(4,4-Difluoropiperidin-1-yl)-6-methylpyrimidin-4-yl)-4-((fluoromethyl)sulfonamido)-2-(6-azaspiro[2.5]octan-6-yl)benzamide]: the concentration for half-maximal inhibition (IC50) is 42 nM.
